pIC50: −log10 of the molar value.
System: 454973-116-R2-J3-PDC spheroids, percent test/control viability
Assay: Anticancer human tumor 454973-116-R2-J3-PDC patient-derived pancreatic carcinoma cell line growth inhibition [CLK]
Conditions: spheroids with HUVEC and MSC; for pIC50: curve of first compound; for viability, T/C: stronger effect = lower value
Procedure, shortened: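 Multi-cell-type spheroids combined patient-derived tumor cells with HUVEC endothelial cells and human mesenchymal stem cells. Paired agents were dosed in half-log steps down from about clinical Cmax, or from 10 microM where Cmax was unknown.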

[1] = second compound 0.0316 µM, first compound 0.0316 µM
[2] = second compound 0.0316 µM, first compound 0.1 µM
[3] = second compound 0.0316 µM, first compound 0.316 µM
[4] = second compound 0.0316 µM, first compound 1 µM
[5] = second compound 0.0316 µM, first compound 3.16 µM
[6] = second compound 0.0316 µM, first compound 10 µM
[7] = second compound 0.1 µM, first compound 0.0316 µM
[8] = second compound 0.1 µM, first compound 0.1 µM
[9] = second compound 0.1 µM, first compound 0.316 µM
[10] = second compound 0.1 µM, first compound 1 µM
[11] = second compound 0.1 µM, first compound 3.16 µM
[12] = second compound 0.1 µM, first compound 10 µM
[13] = second compound 0.316 µM, first compound 0.0316 µM
[14] = second compound 0.316 µM, first compound 0.1 µM
[15] = second compound 0.316 µM, first compound 0.316 µM
[16] = second compound 0.316 µM, first compound 1 µM
[17] = second compound 0.316 µM, first compound 3.16 µM
[18] = second compound 0.316 µM, first compound 10 µM
[19] = second compound 1 µM, first compound 0.0316 µM
[20] = second compound 1 µM, first compound 0.1 µM
[21] = second compound 1 µM, first compound 0.316 µM
[22] = second compound 1 µM, first compound 1 µM
[23] = second compound 1 µM, first compound 3.16 µM
[24] = second compound 1 µM, first compound 10 µM
[25] = second compound 3.16 µM, first compound 0.0316 µM
[26] = second compound 3.16 µM, first compound 0.1 µM
[27] = second compound 3.16 µM, first compound 0.316 µM
[28] = second compound 3.16 µM, first compound 1 µM
[29] = second compound 3.16 µM, first compound 3.16 µM
[30] = second compound 3.16 µM, first compound 10 µM
[31] = second compound 10 µM, first compound 0.0316 µM
[32] = second compound 10 µM, first compound 0.1 µM
[33] = second compound 10 µM, first compound 0.316 µM
[34] = second compound 10 µM, first compound 1 µM
[35] = second compound 10 µM, first compound 3.16 µM
[36] = second compound 10 µM, first compound 10 µM
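Further: spheroids exposed to compounds for 7 days before readout.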

Compound: Nc1ccn(C2OC(CO)C(O)C2(F)F)c(=O)n1 (centres undefined) + CNC(=O)c1ccc(Nc2nc(OC3CCCC3)c3c(-c4ccc5nc(C)oc5c4)c[nH]c3n2)c(OC)c1
- pIC50 (second compound 0.0316 µM): > 7.50
- pIC50 (second compound 0.1 µM): > 7.50
- pIC50 (second compound 0.316 µM): > 7.50
- pIC50 (second compound 1 µM): > 7.50
- pIC50 (second compound 3.16 µM): > 7.50
- pIC50 (second compound 10 µM): > 7.50
- viability, T/C [1]: 10.8%
- viability, T/C [2]: 9.2%
- viability, T/C [3]: 11.1%
- viability, T/C [4]: 7.75%
- viability, T/C [5]: 7.61%
- viability, T/C [6]: 8.18%
- viability, T/C [7]: 9.97%
- viability, T/C [8]: 8.66%
- viability, T/C [9]: 10.6%
- viability, T/C [10]: 9.85%
- viability, T/C [11]: 11.6%
- viability, T/C [12]: 10.8%
- viability, T/C [13]: 11.5%
- viability, T/C [14]: 10.7%
- viability, T/C [15]: 11.8%
- viability, T/C [16]: 10.4%
- viability, T/C [17]: 10.3%
- viability, T/C [18]: 8.88%
- viability, T/C [19]: 11.7%
- viability, T/C [20]: 6.57%
- viability, T/C [21]: 7.9%
- viability, T/C [22]: 9.2%
- viability, T/C [23]: 7.06%
- viability, T/C [24]: 8.15%
- viability, T/C [25]: 11.8%
- viability, T/C [26]: 6.57%
- viability, T/C [27]: 7.14%
- viability, T/C [28]: 9.4%
- viability, T/C [29]: 7.28%
- viability, T/C [30]: 7.11%
- viability, T/C [31]: 13%
- viability, T/C [32]: 8.08%
- viability, T/C [33]: 4.66%
- viability, T/C [34]: 6.23%
- viability, T/C [35]: 9.5%
- viability, T/C [36]: 8.08%

Compound: O=c1[nH]cc(F)c(=O)[nH]1 + CNC(=O)c1ccc(Nc2nc(OC3CCCC3)c3c(-c4ccc5nc(C)oc5c4)c[nH]c3n2)c(OC)c1
- pIC50 (second compound 0.0316 µM): 5.78
- pIC50 (second compound 0.1 µM): 5.69
- pIC50 (second compound 0.316 µM): 7.39
- pIC50 (second compound 1 µM): > 7.50
- pIC50 (second compound 3.16 µM): > 7.50
- pIC50 (second compound 10 µM): > 7.50
- viability, T/C [1]: 94.7%
- viability, T/C [2]: 107%
- viability, T/C [3]: 88.5%
- viability, T/C [4]: 61.7%
- viability, T/C [5]: 32.6%
- viability, T/C [6]: 38.4%
- viability, T/C [7]: 100%
- viability, T/C [8]: 113%
- viability, T/C [9]: 106%
- viability, T/C [10]: 75.8%
- viability, T/C [11]: 33.6%
- viability, T/C [12]: 32.1%
- viability, T/C [13]: 49.4%
- viability, T/C [14]: 49.3%
- viability, T/C [15]: 42.5%
- viability, T/C [16]: 37.5%
- viability, T/C [17]: 28.4%
- viability, T/C [18]: 25.3%
- viability, T/C [19]: 32.9%
- viability, T/C [20]: 28.1%
- viability, T/C [21]: 21.6%
- viability, T/C [22]: 20.6%
- viability, T/C [23]: 16.2%
- viability, T/C [24]: 19.6%
- viability, T/C [25]: 29.8%
- viability, T/C [26]: 33%
- viability, T/C [27]: 24.5%
- viability, T/C [28]: 19.1%
- viability, T/C [29]: 16.4%
- viability, T/C [30]: 18.9%
- viability, T/C [31]: 25.1%
- viability, T/C [32]: 25.3%
- viability, T/C [33]: 19.7%
- viability, T/C [34]: 19.3%
- viability, T/C [35]: 17.2%
- viability, T/C [36]: 14.2%

Reference: PubChem BioAssay AID2060618 (Molecular Pharmacology Branch, DTP, NCI, 2025)
